Assay results: PubChem BioAssay (NCI)
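96-well plates; 48 h exposure; 5 concentrations. Endpoints by linear interpolation between flanking doses. Not reached: highest tested concentration assigned. Here, GI50 denotes the concentration required for 50% inhibition of growth. TGI: concentration producing complete growth inhibition.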

Experiments:
Assay in all cases: growth of human tumour cells (NCI), 48 h
[1] = system: A498 renal
[2] = system: OVCAR-3 ovarian
[3] = system: KM12 colon
[4] = system: SN12C renal
[5] = system: SK-OV-3 ovarian
[6] = system: EKVX NSCLC
[7] = system: HL-60(TB) leukemia
[8] = system: NCI-H522 lung
[9] = system: SK-MEL-2 melanoma
[10] = system: HOP-92 NSCLC

| Compound | TGI [1] [µM] | TGI [2] [µM] | TGI [3] [µM] | TGI [4] [µM] | TGI [5] [µM] | TGI [6] [µM] | TGI [7] [µM] | TGI [8] [µM] | TGI [9] [µM] | TGI [10] [µM] | GI50 [1] [µM] | GI50 [2] [nM] | GI50 [3] [µM] | GI50 [4] [µM] | GI50 [5] [µM] | GI50 [7] [nM] | GI50 [10] [nM] | GI50 [8] [nM] | GI50 [9] [µM] | GI50 [6] [µM] |
| --- | --- | --- | --- | --- | --- | --- | --- | --- | --- | --- | --- | --- | --- | --- | --- | --- | --- | --- | --- | --- |
| Nc1ccc(C(=O)/C=C/c2ccccc2O)cc1 | > 100 | > 100 | > 100 | > 100 | > 100 | > 100 | > 100 | > 100 | > 100 | – | – | – | – | – | – | – | – | – | – | – |
| COc1cc(CCc2ccc(OC(C)=O)cc2)cc(OC)c1OC | > 100 | > 100 | > 100 | > 100 | – | > 100 | > 100 | > 100 | – | > 100 | – | – | – | – | – | – | – | – | – | – |
| CCOc1ccc(Nc2nc(-c3c(C)nc4ncccn34)cs2)cc1 | 0.0678 | 14.6 | 13.8 | 28.2 | 5.48 | – | 0.0706 | 1.57 | 21.7 | 13.4 | < 0.01 | < 10 | 0.034 | 0.0769 | 0.017 | 21.6 | 36.2 | < 10 | 0.0389 | – |
| COc1ccc(/C=C/C(C)=N/OCC(=O)Nc2ccc(Cl)cc2)cc1 | 16.6 | 15 | 16.5 | > 47.7 | 42.4 | – | 10.5 | 8.01 | 13.5 | 4.68 | 2.54 | 3030 | 2.24 | 2.8 | 5.27 | 2550 | 561 | 1810 | 3.69 | – |
| O=C(CC1=Nc2nnc(-c3nnc4n3C(=O)C(CC(=O)C3CC3)=N4)n2C1=O)C1CC1 | > 100 | > 100 | > 100 | > 100 | > 100 | – | > 100 | > 100 | > 100 | > 100 | – | – | – | – | – | – | – | – | – | – |
| CC1CC(C)C(C(O)CC2CC(=O)N(c3ccccc3)C(=O)C2)C(O)C1 (stereo unspecified) | > 100 | > 100 | > 100 | > 100 | > 100 | > 100 | > 100 | > 100 | – | > 100 | – | – | – | – | – | – | – | – | – | – |
| C=CCN=C(N/N=C/c1ccc([N+](=O)[O-])o1)NS(=O)(=O)c1cc(C(=O)Nc2ccccc2)c(Cl)cc1SCC(N)=O | > 100 | 39.8 | 32.5 | > 100 | > 100 | > 100 | – | 67.1 | 45.3 | 52.2 | 77.8 | 14700 | 17.1 | 29 | > 100 | – | 13600 | 27800 | 16.1 | 22.9 |
| NC(=O)c1ncn(C2OC(CO)C(O)C2O)c1N (stereo unspecified) | > 100 | > 100 | > 100 | > 100 | > 100 | > 100 | – | > 100 | > 100 | > 100 | > 100 | > 100000 | > 100 | > 100 | > 100 | – | > 100000 | > 100000 | > 100 | > 100 |
| COc1cccc(C2C(C#N)=C(N)Oc3cc4c(cc32)OCO4)c1 (stereo unspecified) | 3 | 0.0661 | 4.27 | > 46.2 | 4.71 | 58.8 | 0.279 | 0.0715 | 6.77 | – | 0.0311 | 26.4 | 0.0404 | 0.0778 | 0.0508 | 29 | – | 18.5 | 0.0301 | 0.28 |
| Cc1ccc(C2=C(Cl)C(=O)C(c3ccc(C)cc3)=C(Cl)C2=O)cc1 | > 100 | > 100 | > 100 | > 100 | > 100 | > 100 | > 100 | > 100 | – | > 100 | – | – | – | – | – | – | – | – | – | – |
| O=C(O)Cn1ccc(=O)c2cc([N+](=O)[O-])ccc21 | > 100 | > 100 | > 100 | > 100 | > 100 | – | > 100 | > 100 | > 100 | – | – | – | – | – | – | – | – | – | – | – |
| O=C(Oc1ccc2c(c1)CN(Cc1ccccc1)CO2)c1ccccc1 | 31.7 | 29.7 | 44.7 | 34.1 | 34 | 33.4 | – | 22.3 | 50.5 | 28.2 | – | – | – | – | – | – | – | – | – | – |
| OCC#Cc1ccccc1C#Cc1ccc(C#Cc2ccccc2)cc1 | 30.8 | 48.7 | 34.3 | 35.6 | – | 77.9 | > 100 | > 100 | > 100 | – | 15.6 | 27300 | 17.3 | 19 | – | 489 | – | 55200 | 51.4 | 25.2 |
| Clc1ccc2c(NCCCN3CCN(c4nc(N5CCOCC5)nc5ccccc45)CC3)ccnc2c1 | 3.11 | 4.77 | – | – | – | – | 3.95 | 3.73 | 3.49 | – | 1.57 | 2150 | – | – | – | 1350 | – | 1970 | 1.87 | – |
| O=C(c1ccccc1)C(Br)C(Br)c1ccccc1 (stereo unspecified) | 25.5 | 3.65 | 11.3 | 22.6 | 28.8 | 32.7 | – | 2.62 | 24.6 | 6 | 12.8 | 1990 | 3.5 | 10.4 | 15.3 | – | 2530 | 1180 | 10.7 | 14.6 |
| COc1cc(/C=C\c2cc(OC)c(OC)c(OC)c2)cc(NS(=O)(=O)c2ccc(Cl)cc2)c1OC | 0.832 | > 100 | > 100 | > 100 | > 100 | – | 0.694 | 0.87 | 50.7 | 72.3 | 0.179 | 364 | 0.572 | 0.75 | 0.449 | 249 | 720 | 209 | 0.613 | – |
| Oc1ccccc1C=Nc1nc(OCc2ccccc2)nc2[nH]ncc12 | 56.9 | 49.1 | 47.1 | 40.7 | 55.4 | 97.8 | – | > 100 | > 100 | 43.7 | 20.8 | 17800 | 20.4 | 17.2 | 25.9 | – | 11700 | 26300 | 32.2 | 30.1 |
